# Reference: patent US12582614B2, “Composition for preventing, alleviating or treating sarcopenia, containing D-ribo-2-hexulose as active ingredient” (KYUNGPOOK NATIONAL UNIVERSITY INDUSTRY-ACADEMIC COOPERATION …, priority 2021, dated 2026)
# Legend:
# Type in all cases: in vivo, C57BL/6J male mice
# [1] = Liver and erythrocyte H2O2 content and TBARs; details: DRH supplementation; increase in NC vs YC
# [2] = test system: CISH, CerS1, Adiponectin, Adipsin, CIDEC, Haptoglobin, Neuronatin, SCD1; test: mRNA sequencing of gastrocnemius tissue (differentially expressed genes); details: vs NC group, FC cutoff 2 or more, p < 0.05
# aged mice [3] = test: Whole-body tension (digital force gauge); details: DRH group; decrease in NC vs YC
# Experimental: The whole-body tension was measured and evaluated using a digital force gauge (Korea, JM Instruments Corp., FGJN.FGP Series). For each mouse, the whole-body tension was measured and evaluated at intervals of 5 days. In order to evaluate the whole-body tension on week 10 of the experiment, the average value of the maximum whole-body tension was calculated as force per body weight (Ng^−1 BW).
# aged mice [4] = test: Weights of quadriceps, anterior tibialis and gastrocnemius tissues; details: per 100 g body weight, DRH group vs NC group
# Experimental: (§1) Specifically, a negative control group (NC, n=7, American Institute of Nutrition AIN-93G Semisynthetic diet); a D-ribo-2-hexulose-treated group (D-ribo-2-hexulose; DRH, n=7; a portion of cellulose in AIN-93G was replaced with 3% D-ribo-2-hexulose). […] The dose of D-ribo-2-hexulose was set at 3% based on previous animal studies. In the previous studies, the dose of D-ribo-2-hexulose was determined to be 3% in order to investigate a biological effect at a lower dose than the dose. During the experiment, the mice had free access to distilled water, and the food intakes and body weights of the mice were measured weekly, and blood glucose was measured once every 4 weeks. All animal experiments were approved by the Animal Research Ethics Committee of KyungPook National University (Approval Number: KNU-2020-109).
# [5] = Testosterone and cortisol levels
# Experimental: (§2) For cytokine analysis, plasma cytokines (TNF-α, IL-1β, and IL-4) were measured with a Merck Millipore product (MCYTOMAG-70K, Merck, USA). Plasma (30 μL) from each mouse was analyzed in duplicate. Hormone analysis was performed using a cortisol and testosterone parameter assay kit (R&D Systems, USA).
# [6] = test system: Akt, AMPK, PI3K, mTOR, PGC1-α, and phosphorylated variants thereof; test: Western blotting of protein levels of muscle enhancement factors; details: DRH group vs NC group
# Experimental: The amount of cytoplasmic and membrane proteins was quantified according to the Bradford method. Thereafter, a protein load was applied onto a 10% SDS-polyacrylamide gel, transferred to a Tris-glycine electrophoresis buffer for an hour, and then electrophoresed. The positions of the bands were confirmed using a Ponceau solution, blocking (5% skim milk in TBS/0.1% Tween-20) was performed at room temperature for 60 minutes in order to reduce non-specific reactions to the membrane. Then, the samples were reacted with a primary antibody overnight at 4° C.
# Each of the antibodies was reacted with 5% skim milk diluted in the following ratios: Rabbit anti-mouse PGC1-α (1:1,000; Santa Cruz, USA), rabbit anti-mouse α-tubulin (1:1,000; Cell Signaling Technology, USA), rabbit anti-mouse p-Akt (1:1,000; Cell Signaling Technology, USA), rabbit anti-mouse Akt (1:1,000; Cell Signaling Technology, USA), rabbit anti-mouse p-PI3K (1:1,000; Cell Signaling Technology, USA), rabbit anti-mouse PI3K (1:1,000; Cell Signaling Technology), rabbit anti-mouse mTOR (1:1,000; Cell Signaling Technology, USA), rabbit anti-mouse TNF-α (1:1,000; Cell Signaling Technology, USA), rabbit anti-mouse adiponectin (1:1,000; Cell Signaling Technology, USA), rabbit anti-mouse haptoglobin (1:1,000; Abcam, USA), rabbit anti-mouse SCD1 (1:1,000; Cell Signaling Technology, USA), goat anti-mouse CerS1 (1:1,000; Novus Biologicals Ltd., USA), and rabbit anti-mouse NF-κB (1:000; Cell Signaling Technology, USA). The protein bands were washed, and the membrane was then reacted with a primary antibody in a TBST buffer (25 mM Tris-base, 155 mM NaCl, 0.1% Tween-20) in the presence of anti-rabbit IgG (1:1,000; Amersham Ltd., UK) or anti-goat IgG (1:1,000; ABcam Inc., USA) secondary antibodies for 30 minutes, and reacted at room temperature for an hour. Then, the membrane was washed again with a TBST buffer for 30 minutes. Immunoreactive bands were developed on a film using an ECL kit (Pierce Chemical Co., IL) to check the bands in a final state.
# [7] = Muscle and liver glycogen and fasting blood glucose
# Experimental: as §1
# TNF-α, IL-4, IL-1β, IL-6 = test: Plasma inflammatory cytokine levels; details: between the groups (YC, NC, DRH)
# Experimental: as §2
# [8] = test system: hepatic glucose-6-phosphatase (G6P); test: Hepatic glucose-6-phosphatase measurement; details: DRH group vs NC group
smiles,measurement,setting,value
"O=C(CO)[C@H](O)[C@H](O)[C@H](O)CO [DRH, D-ribo-2-hexulose]",liver H2O2 content,[1],significantly reduced
same,Adiponectin expression (mRNA-seq),[2],down-regulated
same,Adipsin expression (mRNA-seq),[2],down-regulated
same,CIDEC expression (mRNA-seq),[2],down-regulated
same,CISH expression (mRNA-seq),[2],up-regulated
same,CerS1 expression (mRNA-seq),[2],up-regulated
same,Haptoglobin expression (mRNA-seq),[2],down-regulated
same,Neuronatin expression (mRNA-seq),[2],down-regulated
same,SCD1 expression (mRNA-seq),[2],down-regulated
same,whole-body tension,aged mice [3],dramatically compensated for the decrease
same,weight of the left anterior tibialis,aged mice [4],significantly increased
same,weights of the right and left quadriceps,aged mice [4],significantly increased
same,cortisol level,[5]; DRH group,decreased
same,testosterone level,[5]; DRH group vs NC group,did not show a significant difference
same,protein level of AMPK and phosphorylated variant,[6],significantly increased
same,protein level of Akt and phosphorylated variant,[6],significantly increased
same,protein level of PGC1-α,[6],significantly increased
same,protein level of PI3K and phosphorylated variant,[6],significantly increased
same,protein level of mTOR and phosphorylated variant,[6],significantly increased
same,fasting blood glucose level,"[7]; at 12 weeks, DRH group vs NC group",significantly decreased
same,liver glycogen content,[7]; between the groups,not significantly different
same,muscle glycogen content,"[7]; quadriceps, between the groups",not significantly different
same,level of inflammatory cytokine IL-1β,"TNF-α, IL-4, IL-1β, IL-6",not significantly different
same,level of inflammatory cytokine IL-4,"TNF-α, IL-4, IL-1β, IL-6",not significantly different
same,level of inflammatory cytokine IL-6,"TNF-α, IL-4, IL-1β, IL-6",not significantly different
same,level of inflammatory cytokine TNF-α,"TNF-α, IL-4, IL-1β, IL-6",not significantly different
same,hepatic glucose-6-phosphatase (G6P),[8],significantly increased
